# How the values were obtained:
# [1] = system: NIH3T3 cells; assay: Proliferation of skin cells (SRB staining), NIH3T3; type: cell-based, mouse; conditions: 50 µM or 100 µM peptide, 72 hours, serum-free DMEM, FIG. 1A
# Experimental: (§1) In this example, the aim was to confirm the effect of a peptide according to an example on proliferation of skin cells, by evaluating changes in survival rate of NIH3T3 cells, which are mouse fibroblasts, or HaCaT cells, which are human keratinocytes.
# (§2) Specifically, NIH3T3 cells or HaCaT cells were seeded in a 96-well plate at a density of 5×10^3 cells/well and cultured for 24 hours. The cells were then washed once with serum-free DMEM media, and the culture medium was replaced with serum-free DMEM media. Then, 50 µM or 100 µM of the peptide consisting of the amino acid sequence of SEQ ID NO: 1 was dispensed into the medium, and cultured in a CO2 incubator at 37° C. for 72 hours. The culture was then washed twice with PBS and treated with 4% paraformaldehyde (PFA) solution for 15 minutes to fix the cultured cells. The culture was then washed twice with distilled water, treated with SRB solution for 1 hour to stain the cells, washed with 1% acetic acid solution, and dried. The dried culture was then dissolved in 20 mM Tris buffer solution and the absorbance at 560 nm was measured using a microplate reader (Molecular Devices, USA). In this example, the untreated group was used as the control group, and the group to which insulin-like growth factor was added (IGF) was used as the positive control group.
# [2] = system: HaCaT cells; assay: Proliferation of skin cells (SRB staining), HaCaT; type: cell-based, human; conditions: 50 µM or 100 µM peptide, 72 hours, serum-free DMEM, FIG. 1B
# Experimental: as §1, §2
# [3] = system: collagen type 1 (Col1a1); assay: Expression of Col1a1 in NIH3T3 cells (RT-PCR); type: cell-based, mouse; conditions: 50 µM or 100 µM peptide, 24 hours, FIG. 2, FIG. 3A
# Experimental: (§3) In this example, the aim was to confirm the effect of the peptide according to an example on improving endogenous skin aging, including improvement of wrinkles and enhancement of elasticity, etc., by evaluating the expression levels of collagen type 1 (Col1a1), fibronectin, or elastin, which are known components of the dermis.
# (§4) Specifically, NIH3T3 cells were seeded in a 6-well plate at a density of 3×10^5 cells/well and cultured for 24 hours. The cells were then washed once with serum-free DMEM media, and the culture medium was replaced with serum-free DMEM media. Thereafter, 50 µM or 100 µM of the peptide consisting of the amino acid sequence of SEQ ID NO: 1 was dispensed into the medium, and cultured in a CO2 incubator at 37° C. for 24 hours. The culture was then washed twice with PBS, and RNA was isolated from the culture using easy blue (iNtRON, Korea). Using an RT kit (Enzynomics, Korea), 1 μg of the isolated RNA was reverse transcribed to synthesize the respective cDNA. Polymerase chain reaction (PCR) was then performed using the cDNAs and primers Col1a1, fibronectin, and elastin. Meanwhile, the untreated group was used as the control group, and the group to which TGF-β1 was added (TGF-β1) was used as the positive control group, the nucleotide sequences of the primers used in this example are shown in Table 2 below.
# [4] = system: fibronectin; assay: Expression of fibronectin in NIH3T3 cells (RT-PCR); type: cell-based, mouse; conditions: 50 µM or 100 µM peptide, 24 hours, FIG. 2, FIG. 3B
# Experimental: as §3, §4
# [5] = system: elastin; assay: Expression of elastin in NIH3T3 cells (RT-PCR); type: cell-based, mouse; conditions: 50 µM or 100 µM peptide, 24 hours, FIG. 2, FIG. 3C
# Experimental: as §3, §4
# [6] = system: sirtuin-1 (SIRT-1); assay: Expression of SIRT-1 in HaCaT cells (RT-PCR); type: cell-based, human; conditions: 50 µM or 100 µM peptide, 24 hours, FIG. 4, FIG. 5A
# Experimental: (§5) In this example, the aim was to confirm the effect of the peptides according to an example on skin barrier defense, by evaluating the expression levels of sirtuin-1 (SIRT-1) or aquaporin-3 (AQP3).
# (§6) Specifically, HaCaT cells were seeded in a 6-well plate at a density of 3×10^5 cells/well and cultured for 24 hours. The cells were then washed once with serum-free DMEM media, and the culture medium was replaced with serum-free DMEM media. Thereafter, 50 µM or 100 µM of the peptide consisting of the amino acid sequence of SEQ ID NO: 1 was dispensed into the medium, and cultured in a CO2 incubator at 37° C. for 24 hours. The culture was then washed twice with PBS, and RNA was isolated from the culture using easy blue (iNtRON, Korea). Using the RT kit (Enzynomics, Korea), 1 μg of the isolated RNA was reverse transcribed to synthesize the respective cDNA. Polymerase chain reaction was then performed using the cDNAs and primers sirtuin-1 and aquaporin-3. Meanwhile, the untreated group was used as the control group, and the group to which EGF was added (EGF) was used as the positive control group, the nucleotide sequences of the primers used in this example are shown in Table 3 below.
# [7] = system: aquaporin-3 (AQP3); assay: Expression of AQP3 in HaCaT cells (RT-PCR); type: cell-based, human; conditions: 50 µM or 100 µM peptide, 24 hours, FIG. 4, FIG. 5B
# Experimental: as §5, §6
# [8] = system: NIH3T3 cells; assay: Survival rate after ultraviolet-induced apoptosis (SRB), NIH3T3; type: cell-based, mouse; conditions: 6 J/cm2 ultraviolet rays, 50 µM or 100 µM peptide, 72 hours, FIG. 6A
# Experimental: (§7) In this example, the aim was to confirm the effect of the peptide according to an example on the inhibition of apoptosis or cell recovery of skin cells induced by ultraviolet rays, by evaluating the change in survival rate of skin cells whose apoptosis was induced by ultraviolet irradiation.
# (§8) Specifically, NIH3T3 cells or HaCaT cells were seeded in a 96-well plate at a density of 1×10^4 cells/well and cultured for 24 hours. The cells were then washed once with serum-free DMEM media, the culture medium was replaced with serum-free DMEM media, and 50 µM or 100 µM of the peptide consisting of the amino acid sequence of SEQ ID NO: 1 was dispensed to the culture medium. The culture medium dispensed with the peptide was cultured in a CO2 incubator at 37° C. for 1 hour, transferred to an e-tube, mixed with 100 ul of PBS, and dispensed into a well plate. Afterwards, using a UV irradiator (VILBER LOURMAT, France), 6 J/cm2 ultraviolet rays were irradiated to NIH3T3 cells, and 15 m J/cm2 ultraviolet rays were irradiated to HaCaT cells. The PBS in the well plate was then removed, 900 μL of the culture medium in which the peptides were dispensed was added, and the plate was cultured in a CO2 incubator at 37° C. for 72 hours. […] The dried culture was then dissolved in 20 mM Tris buffer solution and the absorbance at 560 nm was measured using a microplate reader (Molecular Devices, USA). […]
# [9] = system: HaCaT cells; assay: Survival rate after ultraviolet-induced apoptosis (SRB), HaCaT; type: cell-based, human; conditions: 15 m J/cm2 ultraviolet rays, 50 µM or 100 µM peptide, 72 hours, FIG. 6B
# Experimental: as §7, §8
# [10] = system: NIH3T3 cells; assay: Reactive oxygen species level after ultraviolet irradiation (DCF-DA, FACS), NIH3T3; type: cell-based, mouse; conditions: 6 J/cm2 ultraviolet rays, 50 µM or 100 µM peptide, 24 hours, FIG. 7A
# Experimental: (§9) In this example, the aim was to confirm the effect of the peptide according to an embodiment on the antioxidant effect of skin cells induced by ultraviolet rays, by evaluating the level of reactive oxygen species in skin cells increased by ultraviolet irradiation.
# as §8, with “6-well” for “96-well”, “5×10^5” for “1×10^4”, “24” for “72”, “After washing” for “The dried culture was then dissolved in 20 mM Tris buffer solution and”, “centrifuged cells with PBS, FL1 fluorescence values were” for “absorbance at 560 nm was”, “through flow cytometry (FACS, BD,” for “using a microplate reader (Molecular Devices,”
# [11] = system: HaCaT cells; assay: Reactive oxygen species level after ultraviolet irradiation (DCF-DA, FACS), HaCaT; type: cell-based, human; conditions: 15 m J/cm2 ultraviolet rays, 50 µM or 100 µM peptide, 24 hours, FIG. 7B
# Experimental: as §9
# as §8, with “6-well” for “96-well”, “5×10^5” for “1×10^4”, “24” for “72”, “After washing” for “The dried culture was then dissolved in 20 mM Tris buffer solution and”, “centrifuged cells with PBS, FL1 fluorescence values were” for “absorbance at 560 nm was”, “through flow cytometry (FACS, BD,” for “using a microplate reader (Molecular Devices,”
sequence,measurement,setting,value
EALKYWYEN (Peptide 1) [SEQ ID NO: 1],proliferation of fibroblasts,[1],promoted
same,proliferation of keratinocytes,[2],promoted
same,expression of Col1a1,[3],increased
same,expression of fibronectin,[4],increased
same,expression of elastin,[5],increased
same,expression of SIRT-1,[6],increased
same,expression of AQP3,[7],increased
same,cell survival rate of fibroblasts reduced by ultraviolet irradiation,[8],restored
same,cell survival rate of keratinocytes reduced by ultraviolet irradiation,[9],restored
same,level of reactive oxygen species in fibroblasts increased by ultraviolet irradiation,[10],reduced
same,level of reactive oxygen species in keratinocytes increased by ultraviolet irradiation,[11],reduced
